# Data as given in patent publication US20240238314A1, “TREATMENT OF ESSENTIAL TREMOR” (Sage Therapeutics, Inc., priority 2021, published 2024).
# Tested on: individuals with essential tremor
# Test: Phase 2 placebo-controlled study, Compound 1 60 mg once daily for 28 days (reducible to 45 mg or 30 mg): TETRAS performance subscale part 4 upper limb tremor score and tremor amplitude
# Type: in vivo, human
# Conditions: for % CFB in Tremor Amplitude: calculated from TETRAS part 4 ratings
# Protocol: 4) Upper limb tremor: Tremor is assessed during three maneuvers: forward horizontal reach posture, lateral “wing beating” posture and finger-nose-finger testing. Each upper limb is assessed and scored individually. The forward horizontal reach posture is held for 5 seconds. The lateral wing beating posture is held for 20 seconds. The finger-nose-finger movement is executed three times. Amplitude assessment should be estimated using the maximally displaced point of the hand at the point of greatest displacement along any single plane. For example, the amplitude of a pure supination-pronation tremor, pivoting around the wrist would be assessed at either the thumb or fifth digit.
# For all three hand tremor ratings: 0=no tremor. 1=tremor is barely visible. 1.5=tremor is visible, but less than 1 cm. 2=tremor is 1-<3 cm amplitude. 2.5=tremor is 3-<5 cm amplitude. 3=tremor is 5-<10 cm amplitude. 3.5=tremor is 10-<20 cm amplitude. 4=tremor is >20 cm amplitude.
# As used herein, “The Essential Tremor Rating Assessment Scale (TETRAS) performance subscale part 4 upper limb tremor total score” refers to the “upper limb tremor” under metric or characteristic 4 of the TETRAS performance subscale set forth above. Each of the three tasks are performed on each limb to give a total of 6 tasks, wherein each task is scored 0, 1, 1.5, 2, 2.5, 3, 3.5, or 4, and each score is added to give a total score no greater than 24.
# [formula] • wherein Tf is a final tremor amplitude; • Ti is an initial tremor amplitude; • Rf is a final tremor rating; • Ri is an initial tremor rating; • α is 0.05; and • N=6, for 6 tasks in TETRAS performance subscale part 4 upper limb tremor total score.
# Participants were 18 to 80 years of age, inclusive, diagnosed of ET of at least 3 years duration with scores of at least 1.5 for each of the six items that comprised the combined total upper limb TETRAS (total performance subscale part 4) with the total score for the dominant upper limb (the sum of the 3 items for either the right or left upper limb, whichever is dominant) being at least 5.5, at both Screening and predose on Day 1.
# Groups received either Compound 1 as orally administered tablet(s) (each tablet providing 15 mg of Compound 1) or matching placebo at 1:1 ratio. Tablets were formulated as immediate release, white to off-white, round, film-coated tablets containing 15 mg of Compound 1, filler, disintegrant, lubricant, and glidant, wherein the tablets were formed using direct compression and coated with Opadry® II white as the film coating.
# Participants were randomized to receive Compound 1 60 mg or placebo once daily in the morning on a 1:1 basis. If participants reported a TEAE considered by investigator to be related to Compound 1 and not tolerable, investigator might reduce the dose of Compound 1 from 60 mg in 15 mg decrements (i.e., 60 mg, to 45 mg, to 30 mg), as medically appropriate. If intolerable TEAEs persist at the 30 mg dose, Compound 1 was permanently stopped.
# This study included a Screening Period of up to 28 days, a 29-day treatment period consisting of 28 days of dosing with the end of treatment visit intended to be on Day 29 at trough, and a 14-day follow-up period relative to final dose. Study patients were not taking other medications for essential tremor during the 28-day treatment period.
# The model included the change from baseline at each visit as the dependent variable, treatment, baseline TETRAS performance subscale part 4 upper limb tremor score, assessment timepoint, and timepoint-by-treatment as explanatory variables. All explanatory variables were treated as a fixed effect. The main comparison was (difference in least mean square [LSMEAN]) between Compound 1 and placebo at the 29-day timepoint.
# Model-based point estimates (i.e., LSMEAN, 95% confidence intervals, and p-values) were reported where applicable. An unstructured covariance structure was used to model the within-subject errors. […]
# [1] = Baseline TETRAS Upper Limb Part 4 < 12, Day 29
# [2] = Baseline TETRAS Upper Limb Part 4 ≥ 12, Day 29
# [3] = Baseline part 4 upper limb total score ≥ 12, Day 8
# [4] = Baseline part 4 upper limb total score ≥ 12, Day 15, 5 hr postdose
# [5] = Baseline part 4 upper limb total score ≥ 12, Day 15, 8 hr postdose
# [6] = Baseline part 4 upper limb total score ≥ 12, Day 15, predose
# [7] = Baseline part 4 upper limb total score ≥ 12, Day 22
# [8] = Baseline part 4 upper limb total score ≥ 12, Day 42
# [9] = Full Analysis Set, Day 15, 5 hr postdose
# [10] = Full Analysis Set, Day 15, 8 hr postdose
# [11] = Full Analysis Set, Day 15, predose
# [12] = Per-Protocol Set, Day 15, 5 hr postdose
# [13] = Per-Protocol Set, Day 15, 8 hr postdose
# [14] = Per-Protocol Set, Day 15, predose
compound,measurement,setting,value
COC[C@@]1(O)CC[C@H]2[C@@H](CC[C@@H]3[C@@H]2CC[C@]2(C)[C@@H](C(=O)Cn4nnc(C)n4)CC[C@@H]32)C1 [Compound 1],LSMean (SE) CFB in TETRAS performance subscale part 4 upper limb tremor total score,[1],−1.06
same,LSMean Difference (CI) vs placebo in CFB in TETRAS performance subscale part 4 upper limb tremor total score,[1],0.45
same,Mean (SD) % CFB in TETRAS performance subscale part 4 upper limb tremor total score,[1],−7.76%
same,% CFB in Tremor Amplitude,[1],−18.40%
same,"Frequency of % CFB in tremor amplitude category 15-<30%, number of participants",[2],6
same,"Frequency of % CFB in tremor amplitude category 15-<30%, percent of participants",[2],(28.6)
same,"Frequency of % CFB in tremor amplitude category 30-<50%, number of participants",[2],2
same,"Frequency of % CFB in tremor amplitude category 30-<50%, percent of participants",[2],(9.5)
same,"Frequency of % CFB in tremor amplitude category 50-<75%, number of participants",[2],2
same,"Frequency of % CFB in tremor amplitude category 50-<75%, percent of participants",[2],(9.5)
same,"Frequency of % CFB in tremor amplitude category <15%, number of participants",[2],11
same,"Frequency of % CFB in tremor amplitude category <15%, percent of participants",[2],(52.4)
same,"Frequency of % CFB in tremor amplitude category >75%, number of participants",[2],0
same,Mean (SD) % CFB in TETRAS performance subscale part 4 upper limb tremor total score,[2],−20.47%
same,% CFB in Tremor Amplitude,[2],−41.00%
same,LSMean difference vs placebo in change from baseline in TETRAS performance subscale part 4 upper limb tremor total score,[3],−1.33
same,Model-based LSMean (SE) change from baseline in TETRAS performance subscale part 4 upper limb tremor total score,[3],−1.99 (0.340)
same,LSMean difference vs placebo in change from baseline in TETRAS performance subscale part 4 upper limb tremor total score,[4],−1.60
same,Model-based LSMean (SE) change from baseline in TETRAS performance subscale part 4 upper limb tremor total score,[4],−3.12 (0.449)
same,LSMean difference vs placebo in change from baseline in TETRAS performance subscale part 4 upper limb tremor total score,[5],−1.38
same,Model-based LSMean (SE) change from baseline in TETRAS performance subscale part 4 upper limb tremor total score,[5],−2.84 (0.445)
same,LSMean difference vs placebo in change from baseline in TETRAS performance subscale part 4 upper limb tremor total score,[6],−1.37
same,Model-based LSMean (SE) change from baseline in TETRAS performance subscale part 4 upper limb tremor total score,[6],−2.15 (0.371)
same,LSMean difference vs placebo in change from baseline in TETRAS performance subscale part 4 upper limb tremor total score,[7],−1.48
same,Model-based LSMean (SE) change from baseline in TETRAS performance subscale part 4 upper limb tremor total score,[7],−2.56 (0.383)
same,LSMean difference vs placebo in change from baseline in TETRAS performance subscale part 4 upper limb tremor total score,"Baseline part 4 upper limb total score ≥ 12, Day 29",−1.70
same,LSMean difference vs placebo in change from baseline in TETRAS performance subscale part 4 upper limb tremor total score,[8],0.22
same,Model-based LSMean (SE) change from baseline in TETRAS performance subscale part 4 upper limb tremor total score,[8],−1.59 (0.475)
same,Percent reduction from baseline in tremor amplitude,Full Analysis Set,36
same,LSMean difference vs placebo in change from baseline in TETRAS performance subscale part 4 upper limb tremor total score,"Full Analysis Set, Day 8",−0.81
same,Model-based LSMean (SE) change from baseline in TETRAS performance subscale part 4 upper limb tremor total score,"Full Analysis Set, Day 8",−1.67 (0.287)
same,LSMean difference vs placebo in change from baseline in TETRAS performance subscale part 4 upper limb tremor total score,[9],−0.40
same,Model-based LSMean (SE) change from baseline in TETRAS performance subscale part 4 upper limb tremor total score,[9],−2.64 (0.452)
same,LSMean difference vs placebo in change from baseline in TETRAS performance subscale part 4 upper limb tremor total score,[10],−0.27
same,Model-based LSMean (SE) change from baseline in TETRAS performance subscale part 4 upper limb tremor total score,[10],−2.36 (0.441)
same,LSMean difference vs placebo in change from baseline in TETRAS performance subscale part 4 upper limb tremor total score,[11],−0.48
same,Model-based LSMean (SE) change from baseline in TETRAS performance subscale part 4 upper limb tremor total score,[11],−1.78 (0.344)
same,LSMean difference vs placebo in change from baseline in TETRAS performance subscale part 4 upper limb tremor total score,"Full Analysis Set, Day 22",−0.77
same,Model-based LSMean (SE) change from baseline in TETRAS performance subscale part 4 upper limb tremor total score,"Full Analysis Set, Day 22",−2.10 (0.360)
same,"Frequency of % CFB in tremor amplitude category 15-<30%, number of participants","Full Analysis Set, Day 29",5
same,"Frequency of % CFB in tremor amplitude category 15-<30%, percent of participants","Full Analysis Set, Day 29",(23.8)
same,"Frequency of % CFB in tremor amplitude category 30-<50%, number of participants","Full Analysis Set, Day 29",6
same,"Frequency of % CFB in tremor amplitude category 30-<50%, percent of participants","Full Analysis Set, Day 29",(28.6)
same,"Frequency of % CFB in tremor amplitude category 50-<75%, number of participants","Full Analysis Set, Day 29",3
same,"Frequency of % CFB in tremor amplitude category 50-<75%, percent of participants","Full Analysis Set, Day 29",(14.3)
same,"Frequency of % CFB in tremor amplitude category <15%, number of participants","Full Analysis Set, Day 29",5
same,"Frequency of % CFB in tremor amplitude category <15%, percent of participants","Full Analysis Set, Day 29",(23.8)
same,"Frequency of % CFB in tremor amplitude category >75%, number of participants","Full Analysis Set, Day 29",2
same,"Frequency of % CFB in tremor amplitude category >75%, percent of participants","Full Analysis Set, Day 29",(9.5)
same,LSMean difference vs placebo in change from baseline in TETRAS performance subscale part 4 upper limb tremor total score,"Full Analysis Set, Day 29","−1.07 (−2.14, −0.00)"
same,Mean (SD) % CFB in TETRAS performance subscale part 4 upper limb tremor total score,"Full Analysis Set, Day 29",−18.05%
same,Model-based LSMean (SE) change from baseline in TETRAS performance subscale part 4 upper limb tremor total score,"Full Analysis Set, Day 29",−2.31 (0.401)
same,% CFB in Tremor Amplitude,"Full Analysis Set, Day 29",−35.80%
same,LSMean difference vs placebo in change from baseline in TETRAS performance subscale part 4 upper limb tremor total score,"Full Analysis Set, Day 29, listed as Cmpd 1",−1.07
same,LSMean difference vs placebo in change from baseline in TETRAS performance subscale part 4 upper limb tremor total score,"Full Analysis Set, Day 42",0.62
same,Model-based LSMean (SE) change from baseline in TETRAS performance subscale part 4 upper limb tremor total score,"Full Analysis Set, Day 42",−1.23 (0.407)
same,LSMean difference vs placebo in change from baseline in TETRAS performance subscale part 4 upper limb tremor total score,"Per-Protocol Set, Day 8",−0.97
same,Model-based LSMean (SE) change from baseline in TETRAS performance subscale part 4 upper limb tremor total score,"Per-Protocol Set, Day 8",−1.78 (0.319)
same,LSMean difference vs placebo in change from baseline in TETRAS performance subscale part 4 upper limb tremor total score,[12],−0.71
same,Model-based LSMean (SE) change from baseline in TETRAS performance subscale part 4 upper limb tremor total score,[12],−2.83 (0.500)
same,LSMean difference vs placebo in change from baseline in TETRAS performance subscale part 4 upper limb tremor total score,[13],−0.70
same,Model-based LSMean (SE) change from baseline in TETRAS performance subscale part 4 upper limb tremor total score,[13],−2.66 (0.500)
same,LSMean difference vs placebo in change from baseline in TETRAS performance subscale part 4 upper limb tremor total score,[14],−0.83
same,Model-based LSMean (SE) change from baseline in TETRAS performance subscale part 4 upper limb tremor total score,[14],−1.94 (0.367)
same,LSMean difference vs placebo in change from baseline in TETRAS performance subscale part 4 upper limb tremor total score,"Per-Protocol Set, Day 22",−1.15
same,Model-based LSMean (SE) change from baseline in TETRAS performance subscale part 4 upper limb tremor total score,"Per-Protocol Set, Day 22",−2.38 (0.408)
same,LSMean difference vs placebo in change from baseline in TETRAS performance subscale part 4 upper limb tremor total score,"Per-Protocol Set, Day 29",−1.37
same,Model-based LSMean (SE) change from baseline in TETRAS performance subscale part 4 upper limb tremor total score,"Per-Protocol Set, Day 29",−2.50 (0.452)
same,LSMean difference vs placebo in change from baseline in TETRAS performance subscale part 4 upper limb tremor total score,"Per-Protocol Set, Day 42",0.36
same,Model-based LSMean (SE) change from baseline in TETRAS performance subscale part 4 upper limb tremor total score,"Per-Protocol Set, Day 42",−1.48 (0.474)
same,Percent reduction from baseline in tremor amplitude,subjects with baseline TETRAS performance subscale part 4 upper limb tremor total score ≥12,41%
